According to patent publication US9029377B2, “Platelet-activating factor receptor antagonists” (Merck Sharp & Dohme Corp., priority 2009, dated 2015):

Biological target: PAFR (Homo sapiens, UniProt P25105)
Assay: PAF Binding Assay (PAFR binding)

Chain of PAFR (P25105 whole entry): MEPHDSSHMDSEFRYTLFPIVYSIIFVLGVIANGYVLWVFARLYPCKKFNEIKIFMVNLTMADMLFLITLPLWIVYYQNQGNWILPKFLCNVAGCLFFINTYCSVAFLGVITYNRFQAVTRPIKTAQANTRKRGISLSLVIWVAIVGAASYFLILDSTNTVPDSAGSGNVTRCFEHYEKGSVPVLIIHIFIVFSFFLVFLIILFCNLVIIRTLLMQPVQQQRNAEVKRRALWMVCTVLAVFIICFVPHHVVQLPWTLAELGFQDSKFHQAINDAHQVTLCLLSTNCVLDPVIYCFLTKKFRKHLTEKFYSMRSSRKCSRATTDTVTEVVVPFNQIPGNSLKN

IC50 | Compound
1.8 nM | CCc1cc(-c2cccc3cccnc23)cc(S(=O)(=O)N[C@@H]2C[C@H](n3cnnc3C)CC(F)(F)C2)c1 [Compound 3Da, N-[(1R,5S)-3,3-difluoro-5-(3-methyl-4H-1,2,4-triazol-4-yl)cyclohexyl]-3-ethyl-5-quinolin-8-ylbenzenesulfonamide]
3.2 nM | O=S(=O)(N[C@H]1CCC[C@@H](n2cnnc2)C1)c1cc(-c2cccnc2OCC(F)(F)F)cc(C(F)(F)F)c1 [Compound 3Aam, N-[(1S,3R)-3-(4H-1,2,4-triazol-4-yl)cyclohexyl]-3-[2-(2,2,2-trifluoroethoxy)pyridin-3-yl]-5-(trifluoromethyl)benzenesulfonamide]
16 nM | CCc1cc(-c2ccccc2OC)ccc1S(=O)(=O)N[C@H]1CCC[C@@H](n2cnnc2)C1 [Compound 2As, 3-ethyl-2′-methoxy-N-[(1S,3R)-3-(4H-1,2,4-triazol-4-yl)cyclohexyl]biphenyl-4-sulfonamide]
13 nM | COc1ncccc1-c1cc(OC(F)(F)F)cc(S(=O)(=O)N[C@H]2CCC[C@@H](n3cnnc3)C2)c1 [Compound 3Eb, 3-(2-methoxypyridin-3-yl)-N-[(1S,3R)-3-(4H-1,2,4-triazol-4-yl)cyclohexyl]-5-(trifluoromethoxy)benzenesulfonamide]
1.3 nM | Cc1nncn1[C@H]1C[C@@H](NS(=O)(=O)c2ccc(-c3noc(C4CC4)n3)cc2C2CC2)CC(F)(F)C1 [Compound 2Lj, 2-cyclopropyl-4-(5-cyclopropyl-1,2,4-oxadiazol-3-yl)-N-[(1R,5S)-3,3-difluoro-5-(3-methyl-4H-1,2,4-triazol-4-yl)cyclohexyl]benzenesulfonamide]
4 nM | O=S(=O)(N[C@H]1CCC[C@@H](n2cnnc2)C1)c1cc(-c2cccc3ccc(OCC(F)(F)F)nc23)cc(C(F)(F)F)c1 [Compound 3Aad, N-[(1S,3R)-3-(4H-1,2,4-triazol-4-yl)cyclohexyl]-3-[2-(2,2,2-trifluoroethoxy)quinolin-8-yl]-5-(trifluoromethyl)benzenesulfonamide]
870 nM | Cc1cn(-c2ccc(S(=O)(=O)N[C@H]3CCC[C@@H](n4cnnc4C)C3)cc2)cn1 [Compound 2Nt, 4-(4-methyl-1H-imidazol-1-yl)-N-[(1S,3R)-3-(3-methyl-4H-1,2,4-triazol-4-yl)cyclohexyl]benzenesulfonamide]
5.9 nM | O=S(=O)(N[C@H]1CCC[C@@H](n2cnnc2)C1)c1cc(-c2ccnc3ccnn23)cc(C(F)(F)F)c1 [Compound 9c, 3-pyrazolo[1,5-a]pyrimidin-7-yl-N-[(1S,3R)-3-(4H-1,2,4-triazol-4-yl)cyclohexyl]-5-(trifluoromethyl)benzenesulfonamide]
0.7 nM | O=S(=O)(N[C@H]1CCC[C@@H](n2cnnc2)C1)c1ccc(-c2ccc(OCC(F)(F)F)cc2)c(F)c1 [Compound 2Eb, 2-fluoro-N-[(1S,3R)-3-(4H-1,2,4-triazol-4-yl)cyclohexyl]-4′-(2,2,2-trifluoroethoxy)biphenyl-4-sulfonamide]
4.8 nM | O=S(=O)(N[C@@H]1C[C@H](n2cnnc2)CC(F)(F)C1)c1cc(-c2cccc3cccnc23)cc(C(F)(F)F)c1 [Compound 3Cd, N-[(1R,5S)-3,3-difluoro-5-(4H-1,2,4-triazol-4-yl)cyclohexyl]-3-quinolin-8-yl-5-(trifluoromethyl)benzenesulfonamide]
194 nM | Cc1cc(C)cc(S(=O)(=O)N[C@H]2CCC[C@@H](n3cnnc3)C2)c1 [Compound 2Me, 3,5-dimethyl-N-[(1S,3R)-3-(4H-1,2,4-triazol-4-yl)cyclohexyl]benzenesulfonamide]
2.9 nM | O=S(=O)(N[C@H]1CCC[C@@H](n2cnnc2)C1)c1c(C2CC2)cc(-c2noc(C3CC(F)(F)C3)n2)cc1C1CC1 [Compound 2Rc, 2,6-dicyclopropyl-4-[5-(3,3-difluorocyclobutyl)-1,2,4-oxadiazol-3-yl]-N-[(1S,3R)-3-(4H-1,2,4-triazol-4-yl)cyclohexyl]benzenesulfonamide]

Further lines, the compound ahead of its results:

Compound | IC50
CCc1cc(-c2ccc(F)nc2)ccc1S(=O)(=O)N[C@H]1CCC[C@@H](n2cnnc2)C1 [Compound 2Aam, 2-ethyl-4-(6-fluoropyridin-3-yl)-N-[(1S,3R)-3-(4H-1,2,4-triazol-4-yl)cyclohexyl]benzenesulfonamide] | 81 nM
CCCCOc1ccc(S(=O)(=O)N[C@H]2CCC[C@@H](n3cnnc3C3CC3)C2)c(F)c1 [Compound 2Oag, 4-butoxy-N-[(1S,3R)-3-(3-cyclopropyl-4H-1,2,4-triazol-4-yl)cyclohexyl]-2-fluorobenzenesulfonamide] | 7.2 nM
CCc1cc(-c2ccc(OC)cc2)ccc1S(=O)(=O)N[C@H]1CCC[C@@H](n2cnnc2)C1 [Compound 2Ap, 3-ethyl-4′-methoxy-N-[(1S,3R)-3-(4H-1,2,4-triazol-4-yl)cyclohexyl]biphenyl-4-sulfonamide] | 27 nM
CCc1cc(-c2cc(Cl)cn3ccnc23)ccc1S(=O)(=O)N[C@H]1CCC[C@@H](n2cnnc2)C1 [Compound 2Aat, 4-(6-chloroimidazo[1,2-a]pyridin-8-yl)-2-ethyl-N-[(1S,3R)-3-(4H-1,2,4-triazol-4-yl)cyclohexyl]benzenesulfonamide] | 2.2 nM
CCCCOc1ccc(S(=O)(=O)N[C@H]2CCC[C@@H](n3cnnc3C3CC3)C2)cc1 [Compound 2Ow, 4-butoxy-N-[(1S,3R)-3-(3-cyclopropyl-4H-1,2,4-triazol-4-yl)cyclohexyl]benzenesulfonamide] | 4.1 nM
CCc1cc(-c2ccc(OC(F)(F)F)c(F)c2)ccc1S(=O)(=O)N[C@H]1CCC[C@@H](n2cnnc2C)C1 [Compound 2Abf, 3-ethyl-3′-fluoro-N-[(1S,3R)-3-(3-methyl-4H-1,2,4-triazol-4-yl)cyclohexyl]-4′-(trifluoromethoxy)biphenyl-4-sulfonamide] | 2.7 nM
O=S(=O)(N[C@H]1CCC[C@@H](n2cnnc2)C1)c1cc(C(F)(F)F)cc(C(F)(F)F)c1 [2 Mb, N-[(1S,3R)-3-(4H-1,2,4-triazol-4-yl)cyclohexyl]-3,5-bis(trifluoromethyl)benzenesulfonamide] | 280 nM
CCc1cc(-c2ccc(OC(C)C)nc2)ccc1S(=O)(=O)N[C@H]1CCC[C@@H](n2cnnc2)C1 [Compound 2Aai, 2-ethyl-4-(6-isopropoxypyridin-3-yl)-N-[(1S,3R)-3-(4H-1,2,4-triazol-4-yl)cyclohexyl]benzenesulfonamide] | 1.8 nM
CCc1cc(-c2ccc(OC3CCC3)nc2)ccc1S(=O)(=O)N[C@H]1CCC[C@@H](n2cnnc2)C1 [Compound 2Aaq, 4-[6-(cyclobutyloxy)pyridin-3-yl]-2-ethyl-N-[(1S,3R)-3-(4H-1,2,4-triazol-4-yl)cyclohexyl]benzenesulfonamide] | 0.8 nM
3-(2-cyclopropylpyrimidin-4-yl)-N-[(1R,5S)-3,3-difluoro-5-(3-methyl-4H-1,2,4-triazol-4-yl)cyclohexyl]-5-(trifluoromethyl)benzenesulfonamide [Compound 9Aa] | 2.2 nM
CCc1cc(-c2cccnc2O)ccc1S(=O)(=O)N[C@H]1CCC[C@@H](n2cnnc2)C1 [Compound 2Aag, 2-ethyl-4-(2-hydroxypyridin-3-yl)-N-[(1S,3R)-3-(4H-1,2,4-triazol-4-yl)cyclohexyl]benzenesulfonamide] | 167 nM
